# Where “and” joins values, the source holds several entries; their conditions need not be identical. Equal values may be shown once. Marks after values point to notes of the source that are not given here.
# How the values were obtained:
# [1] = test system: rat aortic smooth muscle cell line A7r5; assay: Inhibiting proliferation of smooth muscle cells - cell counting analysis (trypan blue); type: cell-based; conditions: 48 hours
# Protocol: (§1) A rat aortic smooth muscle cell line A7r5 was used to carry out the present experiment. A Dulbecco's modified Eagle's medium (DMEM, purchased from Biowest) was used as a general culture medium. The medium was added with 4 mM of L-glutamine, 1.5 g/L sodium bicarbonate, 4.5 g/L glucose, and 10 wt % fetal bovine serum. The A7r5 smooth muscle cells were cultured in a 75 cm^2 petri dish, and 12 mL of the culture medium was added thereinto. The cells were placed and incubated in a cell incubator containing 5 vol % of carbon dioxide at 37° C. After the dish was fully covered by the grown cells, the medium was replaced once every 3 days, and 0.5 wt % trypsin was used for subculture.
# (§2) In addition, a culture medium containing n-butylidenephthalide was prepared. Herein, n-butylidenephthalide was dissolved in dimethyl sulfoxide (purchased from Sigma), and solutions with n-butylidenephthalide concentrations of 0, 25, 50, 100, 150, and 200 mg/mL were prepared, and the solutions were stored at −20° C. When used to prepare a medium, the solutions were diluted by 1000 times with the general culture medium used for incubating smooth muscle cells to prepare a culture medium containing 0, 25, 50, 100, 150, or 200 μg/mL of n-butylidenephthalide.
# The rat aortic smooth muscle cell line A7r5 was inoculated in a 6-hole culture dish (density: 1×10^5 cells/hole). After the cells were cultured for 24 hours, the medium was replaced by a medium containing n-butylidenephthalide with a concentration of 0, 25, 50, 100, 150, or 200 μg/mL to culture the smooth muscle cells. After another 48 hours, the cells were observed by an inverted microscope, and the cells were detached by 0.5 wt % trypsin. Then, 20 μL of the cell suspension was taken and mixed evenly with 20 μL trypan blue, and finally, 10 μL of the mixture was collected and added onto a blood cell counting plate. The cell number was counted by a microscope under 100× magnifications to evaluate the inhibition of n-butylidenephthalide on the growth of the smooth muscle cells.
# [2] = test system: rat aortic smooth muscle cell line A7r5; assay: Inhibiting proliferation of smooth muscle cells - cell cycle analysis (propidium iodide flow cytometry); type: cell-based; conditions: 24 hours
# Protocol: as §1, §2
# An inhibition test on the cell cycle progression of smooth muscle cells was carried out. Because the cellular DNA content is different in each cell cycle phase, the amount of DNA can be used to evaluate the cell cycle phase in which the cell proceeds. In another aspect, because propidium iodide can bind to DNA, and it can emit red fluorescent light with a wavelength of 625 nm after being excited by light with a wavelength of 488 nm, thus, propidium iodide was used as a fluorescent staining agent in the present experiment, and the red fluorescent intensity represented the amount of DNA, thereby determining which phase the cell was in during the cell cycle.
# The rat aortic smooth muscle cell line A7r5 was inoculated in a 6-hole culture dish (density: 1×10^5 cells/hole). After the cells were cultured for 24 hours, the medium was replaced by a medium containing n-butylidenephthalide with a concentration of 0, 25, or 50 μg/mL to culture the smooth muscle cells. After another 24 hours, the cells were fixed with 70 vol % alcohol, and a phosphate buffer solution (PBS) was used to rinse the cells. Finally, propidium iodide (a solution containing 955 μL 1×PBS, 5 μL Triton X-100 (0.5 wt %, purchased from Sigma), 20 μL RNase A (10 mg/mL, purchased from Sigma), and 20 μL propidium iodide (1 mg/mL, purchased from Sigma)) was used to stain the cells for 15 minutes. Then, a flow cytometry (FC500, Beckman) was used to scan and collect 10,000 cells. Multicycle for Windows software (Phoenix Flow Systems) was used to analyze cellular cell cycle.
# [3] = test system: carotid artery of Sprague-Dawley (SD) rats after balloon catheter injury; assay: Animal test - treatment of carotid artery injury induced blood vessel stenosis; type: in vivo, rat; conditions: for Blood vessel neointimal layer area /middle layer area (intima/media ratio) / Blood vessel neointimal layer area: day 14
# Protocol: Sprague-Dawley (SD) rats (purchased from BioLasco Taiwan Co. Ltd, Taipei) were used in the present experiment to carry out the animal test. The rats were bred in an environment with 12 hours light, followed by 12 hours dark, and fed to 10-weeks old (body weight: about 300 to 400 g). Then, carotid artery injury surgery and the following experiments were carried out. The present experiment followed the Animal Protection Act and the provisions of Animal Management Committee of National Dong Hwa University.
# The SD rat was anesthetized by 320 mg/kg-body-weight chloral hydrate (purchased from Fluka), and then the abdominal area was faced upwards, and the limbs were fixed with a breathable tape on a surgery plate. The Casscells' method (Casscells et al., Migration of smooth muscle and endothelial cells. Critical events in restenosis, Circulation, 1992; 86; 723-729, which is incorporated hereinto by reference) was used to carry out the carotid artery injury surgery. First, the skin of the rat was cut open with a scissor from the midline of the neck jaw to the chest area, and then the connective tissue at the right side of the rat neck was separated from the muscle layer to expose the blood vessel next to the trachea, and the blood vessel is the common carotid artery. The right side common carotid artery, internal carotid artery, and external carotid artery were separated, and the connective tissue at the junction of these three blood vessels was completely striped. Then, the external carotid artery was tied up with a 2/0 sized silk thread, and the common carotid artery was clipped by a vascular clip to avoid heavy bleeding. A gap was made by cutting the external carotid artery with a microscopic scissor, and a balloon catheter (Cather French Size 2F, purchased from Edwards Lifescience) was implanted through the gap. The balloon catheter was inserted 5 cm into the common carotid artery, and 0.2 mL of a physiological saline solution was filled into the balloon catheter to expend the catheter. Then, the balloon catheter was pulled out to the gap of the external carotid artery, and the physiological saline solution was drawn out from the balloon catheter. After the common carotid artery was injured repeatedly for three times by this method, the gap of the external carotid artery and the bifurcation point between the external carotid artery and the common carotid artery were tied up with a 2/0 sized silk thread. Finally, the wound of the rat was stitched up and spread with an iodine solution. After the rat woke up, the carotid artery injury surgery was completed.
# Two weeks after the carotid artery injury surgery, the rat was sacrificed with excess chloral hydrate (640 mg/kg-body weight). PBS (300 mL) was injected into the left ventricle of the rat using the heart perfusion method and flowed out from the right ventricle through systemic circulation. Neutral formalin (200 mL, 10 vol %) was injected into the left ventricle of the rat to immobilize the whole body tissue. The common carotid artery immobilized by formalin was removed and soaked in a 10 vol % neutral formalin solution.
# The common carotid artery was divided into four sections and labeled with A, B, C, and D from the head to the heart. Each section was 4 mm in length and was placed in an embedding cassette, and then an automatic tissue processor (purchased from Sakura) was used to process the tissue. The process procedure was 1 hour in a 10 vol % formalin solution, 30 minutes in water, 1 hour in 80 vol % alcohol, 3 hours in 95 vol % alcohol, 4 hours in 100 vol % alcohol, 3 hours in xylene, and 3 hours in paraffin. After the tissue process procedure was completed, the tissue was wrapped by paraffin, and the tissue biopsy was carried out by a slicer (purchased from Lica) with a cut of 8 μm thickness. Immunohistochemical stain and H&E stain on the biopsy were carried out. […]
smiles,measurement,setting,value
CCC/C=C1\OC(=O)c2ccccc21 [n-butylidenephthalide],Growth rate,[1]; 25 μg/mL,0.56 +/− 0.06%
same,Growth rate,[1]; 50 μg/mL,0.32 +/− 0.04%
same,Growth rate,[1]; 100 μg/mL,0.25 +/− 0.03%
same,Growth rate,[1]; 150 μg/mL,0.12 +/− 0.04%
same,Growth rate,[1]; 200 μg/mL,0.10 +/− 0.02%
same,inhibition at 25 µg/mL,"[1]; Rattus norvegicus, 25 μg/mL, read-out: inhibition rate of smooth muscle cell growth",43.6%
same,IC50,"[1]; Rattus norvegicus, read-out: IC50 of smooth muscle cell growth",27 µg/mL and 143 µM
same,effect on cell cycle of smooth muscle cells (in words),[2]; 25 and 50 μg/mL,stagnate the smooth muscle cells in the G0/G1 phase
same,Ratio of cells in cell cycle phase G0/G1,[2]; 25 μg/mL,68.33 +/− 0.05%
same,Ratio of cells in cell cycle phase G0/G1,[2]; 50 μg/mL,68.9% and 68.86 +/− 5.2%
same,Ratio of cells in cell cycle phase G2/M,[2]; 25 μg/mL,11.3 +/− 1.25%
same,Ratio of cells in cell cycle phase G2/M,[2]; 50 μg/mL,12.1 +/− 1.15%
same,Ratio of cells in cell cycle phase S,[2]; 25 μg/mL,20.33 +/− 2.05%
same,Ratio of cells in cell cycle phase S,[2]; 50 μg/mL,19.0% and 19.00 +/− 4.3%
same,inhibition of blood vessel stenosis (in words),[3]; 60 mg/kg-body weight,no significant inhibition effect
same,proportion of the rats whose increased area of the blood vessel neointimal layer was under 1×10^5 μm^2,[3]; 60 mg/kg-body weight,0%
same,Blood vessel neointimal layer area /middle layer area (intima/media ratio),[3]; 60 mg/kg-body weight,1.3 +/− 0.3
same,"number of rats with increased neointimal area 0~50,000 μm^2","[3]; 60 mg/kg-body weight, n = 6",0
same,"number of rats with increased neointimal area 50,000~100,000 μm^2","[3]; 60 mg/kg-body weight, n = 6",0
same,"number of rats with increased neointimal area 100,000~150,000 μm^2","[3]; 60 mg/kg-body weight, n = 6",4
same,"number of rats with increased neointimal area Above 150,000 μm^2","[3]; 60 mg/kg-body weight, n = 6",2
same,"proportion of rats with increased neointimal area 100,000~150,000 μm^2","[3]; 60 mg/kg-body weight, n = 6",66.7%
same,"proportion of rats with increased neointimal area Above 150,000 μm^2","[3]; 60 mg/kg-body weight, n = 6",33.3%
same,inhibition of blood vessel stenosis (in words),[3]; 150 mg/kg-body weight,significantly be inhibited
same,inhibition of blood vessel stenosis compared with the sham group (intima/media ratio),[3]; 150 mg/kg-body weight,36.7%
same,inhibition of blood vessel stenosis compared with the sham group (neointimal layer area),[3]; 150 mg/kg-body weight,36.3%
same,proportion of the rats whose increased area of the blood vessel neointimal layer was under 1×10^5 μm^2,[3]; 150 mg/kg-body weight,50%
same,Blood vessel neointimal layer area /middle layer area (intima/media ratio),"[3]; 150 mg/kg-body weight, P < 0.05",0.81 +/− 0.14*
same,"number of rats with increased neointimal area 0~50,000 μm^2","[3]; 150 mg/kg-body weight, n = 6",0
same,"number of rats with increased neointimal area 50,000~100,000 μm^2","[3]; 150 mg/kg-body weight, n = 6",3
same,"number of rats with increased neointimal area 100,000~150,000 μm^2","[3]; 150 mg/kg-body weight, n = 6",3
same,"number of rats with increased neointimal area Above 150,000 μm^2","[3]; 150 mg/kg-body weight, n = 6",0
same,"proportion of rats with increased neointimal area 50,000~100,000 μm^2","[3]; 150 mg/kg-body weight, n = 6",50%
same,"proportion of rats with increased neointimal area 100,000~150,000 μm^2","[3]; 150 mg/kg-body weight, n = 6",50%
same,inhibition of blood vessel stenosis (in words),[3]; 300 mg/kg-body weight,significantly be inhibited
same,inhibition of blood vessel stenosis compared with the sham group (intima/media ratio),[3]; 300 mg/kg-body weight,57.8%
same,inhibition of blood vessel stenosis compared with the sham group (neointimal layer area),[3]; 300 mg/kg-body weight,56.2%
same,proportion of the rats whose increased area of the blood vessel neointimal layer was under 1×10^5 μm^2,[3]; 300 mg/kg-body weight,83.3%
same,Blood vessel neointimal layer area /middle layer area (intima/media ratio),"[3]; 300 mg/kg-body weight, P < 0.01",0.54 +/− 0.24**
same,"number of rats with increased neointimal area 0~50,000 μm^2","[3]; 300 mg/kg-body weight, n = 6",2
same,"number of rats with increased neointimal area 50,000~100,000 μm^2","[3]; 300 mg/kg-body weight, n = 6",3
same,"number of rats with increased neointimal area 100,000~150,000 μm^2","[3]; 300 mg/kg-body weight, n = 6",1
same,"number of rats with increased neointimal area Above 150,000 μm^2","[3]; 300 mg/kg-body weight, n = 6",0
same,"proportion of rats with increased neointimal area 0~50,000 μm^2","[3]; 300 mg/kg-body weight, n = 6",33.3%
same,"proportion of rats with increased neointimal area 50,000~100,000 μm^2","[3]; 300 mg/kg-body weight, n = 6",50.0%
same,"proportion of rats with increased neointimal area 100,000~150,000 μm^2","[3]; 300 mg/kg-body weight, n = 6",16.7%
same,Blood vessel neointimal layer area,"[3]; carotid artery Section A, 60 mg/kg-body weight abdominal injection, days 1,3,5,7,9,11",164528 +/− 81467 μm^2
same,Blood vessel neointimal layer area,"[3]; carotid artery Section A, 150 mg/kg-body weight abdominal injection",75272 +/− 36346 μm^2
same,Blood vessel neointimal layer area,"[3]; carotid artery Section A, 300 mg/kg-body weight abdominal injection",53118 +/− 33403 μm^2
same,Blood vessel neointimal layer area,"[3]; carotid artery Section B, 60 mg/kg-body weight abdominal injection",168355 +/− 37686 μm^2
same,Blood vessel neointimal layer area,"[3]; carotid artery Section B, 150 mg/kg-body weight abdominal injection",119827 +/− 35005 μm^2
same,Blood vessel neointimal layer area,"[3]; carotid artery Section B, 300 mg/kg-body weight abdominal injection",76551 +/− 45327 μm^2
same,Blood vessel neointimal layer area,"[3]; carotid artery Section C, 60 mg/kg-body weight abdominal injection",138260 +/− 36681 μm^2
same,Blood vessel neointimal layer area,"[3]; carotid artery Section C, 150 mg/kg-body weight abdominal injection",93111 +/− 19875 μm^2
same,Blood vessel neointimal layer area,"[3]; carotid artery Section C, 300 mg/kg-body weight abdominal injection",61150 +/− 27899 μm^2
same,Blood vessel neointimal layer area,"[3]; carotid artery Section D, 60 mg/kg-body weight abdominal injection",130852 +/− 77915 μm^2
same,Blood vessel neointimal layer area,"[3]; carotid artery Section D, 150 mg/kg-body weight abdominal injection",85273 +/− 15262 μm^2
same,Blood vessel neointimal layer area,"[3]; carotid artery Section D, 300 mg/kg-body weight abdominal injection",66654 +/− 23434 μm^2
same,Blood vessel neointimal layer area,"[3]; whole carotid artery (Table 4), 60 mg/kg-body weight",150499 +/− 34951 μm^2
same,Blood vessel neointimal layer area,"[3]; whole carotid artery (Table 4), 150 mg/kg-body weight, P < 0.01",93371 +/− 14693 ** μm^2
same,Blood vessel neointimal layer area,"[3]; whole carotid artery (Table 4), 300 mg/kg-body weight, P < 0.01",64368 +/− 20641 ** μm^2
